Test results from US9839642B2, “Beta-tetrazolyl-propionic acids as metallo-beta-lactamase inhibitors” (priority 2014, dated 2017).
Read-outs that look alike come from different tables or passages of the source.

Assays:
NDM-1 = NDM-1 (Klebsiella pneumoniae, UniProt C7C422); test: Enzyme activity: determination of IC50, fluorescence assay with CCF2-FA substrate; assay type: biochemical; settings: CCF2-FA 1.25 μM, 2 hours at 25° C.
Procedure, shortened: (§1)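 Read-out: fluorescence, ex 405 nm / em 460 nm, after 2 h at 25° C with 1.25 μM CCF2-FA. Buffer 100 mM KH2PO4 pH 7, 0.005% Tween-20, 10 μM ZnSO4; enzyme 1 pM NDM-1, 2 pM IMP-1, 30 pM VIM-1. IC50 by 4-parameter fit.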

VIM-1 = VIM-1 (Pseudomonas aeruginosa, UniProt A0A0F7KYQ8); test: as above; assay type: biochemical; settings: enzyme 30 pM, CCF2-FA 1.25 μM, 2 hours at 25° C.; read-out: VIM1 IC50
Procedure, shortened: as §1

IMP-1 = IMP-1 (Serratia marcescens, UniProt P52699); test: as above; assay type: biochemical; settings: enzyme 2 pM, CCF2-FA 1.25 μM, 2 hours at 25° C.; read-out: IMP1 IC50
Procedure, shortened: as §1

[1] = system: Escherichia coli expressing NDM-1 (CLB30005); test: Antibiotic potentiation activity: synergistic concentration (MITC95) with imipenem, growth by OD600; assay type: cell-based; settings: 95% inhibition of bacterial growth, strain CLB30005
Procedure, shortened: (§2)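 Strains grown overnight at 35° C, resuspended in saline, diluted 1:100 into 1.1×CAMHB; imipenem at 1 μg/ml or 4 μg/ml with test compound 200 μM to 0.195 μM. Incubated 22 hours to 24 hours at 35° C, OD600 read; MITC95 is lowest compound concentration inhibiting 95% of growth.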

[2] = system: Serratia marcescens expressing IMP-1 (CL5741); test: as above; assay type: cell-based; settings: 95% inhibition of bacterial growth, strain CL5741
Procedure, shortened: as §2

[3] = system: Klebsiella pneumoniae expressing VIM-1 (IHMA599644); test: as above; assay type: cell-based; settings: 95% inhibition of bacterial growth, strain IHMA599644
Procedure, shortened: as §2

[4] = enzyme 1 pM, read-out: NDM1 IC50

Sequence of NDM-1 (C7C422 29-270, looked up, species assumed): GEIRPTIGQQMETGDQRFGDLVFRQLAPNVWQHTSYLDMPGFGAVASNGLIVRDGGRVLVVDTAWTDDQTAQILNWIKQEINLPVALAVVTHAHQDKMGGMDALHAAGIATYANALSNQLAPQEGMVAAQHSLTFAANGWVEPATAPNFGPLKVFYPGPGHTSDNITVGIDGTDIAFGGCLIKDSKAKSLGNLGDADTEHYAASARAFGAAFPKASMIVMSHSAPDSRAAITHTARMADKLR
Sequence of IMP-1 (P52699 19-246, looked up, species assumed): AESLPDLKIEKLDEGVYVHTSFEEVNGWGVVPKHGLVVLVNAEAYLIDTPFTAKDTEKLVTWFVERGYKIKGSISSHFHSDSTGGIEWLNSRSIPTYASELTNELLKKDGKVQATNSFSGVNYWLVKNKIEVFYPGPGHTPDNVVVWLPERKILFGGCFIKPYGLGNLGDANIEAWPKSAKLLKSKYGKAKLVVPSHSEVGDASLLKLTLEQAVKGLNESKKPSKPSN

| Structure (SMILES) | IC50 (NDM-1; [4]) [nM] | IC50 (VIM-1) [nM] | IC50 (IMP-1) [nM] | NDM1 EC30005 MITC95 [1] [µM] | IMP1 SM5741 MITC95 [2] [µM] | VIM1 KP599644 MITC95 [3] [µM] | IC50 (NDM-1; NDM1 IC50, enzyme 1 pM) [nM] |
| --- | --- | --- | --- | --- | --- | --- | --- |
| NC(=O)CCCC[C@H](C(=O)O)[C@H](Cc1ccccc1)c1nnn[nH]1 [Example 35, (S)-7-amino-7-oxo-2-((S)-2-phenyl-1-(1H-tetrazol-5-yl)ethyl)heptanoic acid] | 1400 | 210 | 3100 | 100 | >200 | >200 | – |
| O=C(O)[C@@H](CCCC1CCNCC1)[C@H](Cc1ccccc1)c1nnn[nH]1 [Example 36, (S)-2-((S)-2-phenyl-1-(1H-tetrazol-5-yl)ethyl)-5-(piperidin-4-yl)pentanoic acid] | 30 | 21 | 2000 | 60 | 108 | 100 | – |
| O=C(O)[C@@H](CCCCc1ccccc1)[C@H](Cc1ccc2c(c1)OCO2)c1nnn[nH]1 [Example 37, (2S)-2-[(1S)-2-(1,3-benzodioxol-5-yl)-1-(2H-tetrazol-5-yl)ethyl]-6-phenylhexanoic acid] | 27 | 10 | 120 | 200 | 106 | >200 | – |
| CC(C)CCCCC[C@H](C(=O)O)[C@H](Cc1ccc2c(c1)OCO2)c1nnn[nH]1 [Example 38, (2S)-2-[(1S)-2-(1,3-benzodioxol-5-yl)-1-(2H-tetrazol-5-yl)ethyl]-8-methylnonanoic acid] | 12 | 5.5 | 49 | 100 | 31 | >200 | – |
| CCCCC[C@H](C(=O)O)[C@H](Cc1ccc2c(c1)OCO2)c1nnn[nH]1 [Example 39, (2S)-2-[(1S)-2-(1,3-benzodioxol-5-yl)-1-(1H-tetrazol-5-yl)ethyl]heptanoic acid] | 86 | 11 | 210 | 75 | >200 | 100 | – |
| CCC[C@H](C(=O)O)[C@H](Cc1ccc(C#N)cc1)c1nn[nH]n1 [Example 40, (S)-2-((S)-2-(4-cyanophenyl)-1-(2H-tetrazol-5-yl)ethyl)pentanoic acid] | 160 | 4.3 | 2500 | 8.3 | 100 | 25 | – |
| CCC[C@H](C(=O)O)[C@H](Cc1ccc(C(N)=O)cc1)c1nn[nH]n1 [Example 45, (S)-2-((S)-2-(4-carbamoylphenyl)-1-(2H-tetrazol-5-yl)ethyl)pentanoic acid] | 93 | 3.3 | 850 | 4.2 | 37.5 | 25 | – |
| CCC[C@H](C(=O)O)[C@H](Cc1ccc(S(C)(=O)=O)cc1)c1nn[nH]n1 [Example 49, (S)-2-((S)-2-(4-(methylsulfonyl)phenyl)-1-(2H-tetrazol-5-yl)ethyl)pentanoic acid] | 69 | 7.6 | 720 | 6.2 | 37.5 | 50 | – |
| CC[C@H](C)[C@H](C(=O)O)[C@H](Cc1ccc(-c2ccc(-c3nnn[nH]3)cc2)cc1)c1nn[nH]n1 [Example 58, (2S,3S)-2-((S)-2-(4′-(1H-tetrazol-5-yl)-[1,1′-biphenyl]-4-yl)-1-(2H-tetrazol-5-yl)ethyl)-3-methylpentanoic acid] | < 0.64 | 5.1 | 1.4 | 18.8 | 12.9 | 200 | – |
| CC(C)[C@H](C(=O)O)[C@H](Cc1ccc(C2=CCNCC2)cc1)c1nnn[nH]1 [Example 59, (2S,3S)-2-isopropyl-4-(4-(1,2,3,6-tetrahydropyridin-4-yl)phenyl)-3-(1H-tetrazol-5-yl)butanoic acid] | – | 10 | 55 | 12.5 | 56.2 | 150 | 9 |
| CCC[C@H](C(=O)O)[C@H](Cc1ccc(Cl)nc1)c1nnn[nH]1 [Example 82, (S)-2-((S)-2-(6-chloropyridin-3-yl)-1-(1H-tetrazol-5-yl)ethyl)pentanoic acid] | 240 | 5.7 | 4600 | 6.2 | 200 | 25 | – |
| CCC[C@H](C(=O)O)[C@H](Cc1ccc(Cl)cn1)c1nnn[nH]1 [Example 83, (S)-2-((S)-2-(5-chloropyridin-2-yl)-1-(1H-tetrazol-5-yl)ethyl)pentanoic acid] | 880 | 71 | > 20000 | 8.3 | >200 | 100 | – |
| CCC[C@H](C(=O)O)[C@H](Cc1ccc(-c2ccc3c(c2)CNC3)nc1)c1nnn[nH]1 [Example 95, 5-(5-((2S,3S)-3-carboxy-2-(1H-tetrazol-5-yl)hexyl)pyridin-2-yl)isoindolin-2-ium] | 160 | 6.5 | 2500 | 3.1 | 50 | 12.5 | – |
| CCC[C@H](C(=O)O)[C@H](Cc1ccc(Br)nc1)c1nnn[nH]1 [Example 143] | 53 | 2.6 | 1700 | 12.5 | >200 | 100 | – |
| CCC[C@H](C(=O)O)[C@H](Cc1ccc(N2CCNCC2)nc1)c1nnn[nH]1 [Example 145, (S)-2-((S)-2-(6-(piperazin-1-yl)pyridin-3-yl)-1-(1H-tetrazol-5-yl)ethyl)pentanoic acid] | – | 18 | 12000 | 6.2 | 200 | 75 | 700 |
| CCC[C@H](C(=O)O)[C@H](Cc1ccc(-c2c(C)nn(C)c2C)nc1)c1nnn[nH]1 [Example 158, (S)-2-((S)-1-(1H-tetrazol-5-yl)-2-(6-(1,3,5-trimethyl-1H-pyrazol-4-yl)pyridin-3-yl)ethyl)pentanoic acid] | 14 | 25 | 61 | 62 | 12.5 | 100 | – |
| CCCC[C@@H](C(=O)O)[C@@H](Cc1ccc(-c2ccc(S(N)(=O)=O)cc2)cc1)c1nn[nH]n1 [Example 184, (2R)-2-[(1R)-2-(4′-sulfamoylbiphenyl-4-yl)-1-(2H-tetrazol-5-yl)ethyl]hexanoic acid] | 900 | 300 | 200 | >200 | 100 | >200 | – |
| CCCC[C@@H](C(=O)O)[C@@H](Cc1ccc(-c2c(C)nn(C)c2C)cc1)c1nn[nH]n1 [Example 185, (2R)-2-{(1R)-1-(2H-tetrazol-5-yl)-2-[4-(1,3,5-trimethyl-1H-pyrazol-4-yl)phenyl]ethyl}hexanoic acid] | 880 | 740 | 11 | >200 | 100 | >200 | – |
| CCCC[C@@H](C(=O)O)[C@@H](Cc1ccc(-c2cn[nH]c2)cc1)c1nn[nH]n1 [Example 186, (2R)-2-[(1R)-2-[4-(1H-pyrazol-4-yl)phenyl]-1-(2H-tetrazol-5-yl)ethyl]hexanoic acid] | 750 | 60 | 140 | 200 | 12.5 | >200 | – |
| CCCC[C@@H](C(=O)O)[C@@H](Cc1ccc(-c2cnn(-c3ccccc3)c2)cc1)c1nn[nH]n1 [Example 187, (2R)-2-[(1R)-2-[4-(1-phenyl-1H-pyrazol-4-yl)phenyl]-1-(2H-tetrazol-5-yl)ethyl]hexanoic acid] | 980 | 140 | 180 | >200 | 103 | >200 | – |
| CCCC[C@@H](C(=O)O)[C@@H](Cc1ccc(-c2ccccc2)cc1)c1nn[nH]n1 [Example 188, (2R)-2-[(1R)-2-biphenyl-4-yl-1-(2H-tetrazol-5-yl)ethyl]hexanoic acid] | 640 | 180 | 140 | >200 | 53 | >200 | – |
